Laboratory results as given in patent US8987328B2, “Esters of capsaicinoids as dietary supplements” (Trinity Laboratories, Inc., priority 2008, dated 2015).
Read-outs that look alike come from different tables or passages of the source.

Experiments:
[1] = cited from earlier work
[2] = i.v. administration, rats; cited from earlier work
[3] = cited from earlier work; remark: listed apart in the source
[4] = p<0.05, cited from earlier work
[5] = set-up: species or system human; settings: in vivo
[6] = in vivo, po
[7] = set-up: species or system human; settings: in vivo; remark: listed apart in the source
[8] = cholesterol-free diet, 4 mg per animal daily, relative to controls
[9] = diet with 0.2% cholesterol, 4 mg per animal daily
[10] = 30% lard diet, capsaicin 0.14% of diet

In the case of `COc1cc(CNC(=O)CCCCC=CC(C)C)ccc1O` [capsaicin, 8-methyl-N-vanillyl-6-nonenamide], the HDL-cholesterol [1, 8] is listed as “increased significantly”, the LDL-cholesterol [1, 8] is listed as “increased significantly” and the VLDL cholesterol [1, 8] is listed as “decreased significantly”. For the same compound, the total cholesterol [1, 8] was “increased significantly”, the serum triglyceride concentrations ([1]; cholesterol-free diet, 4 mg per animal daily) was “Neither drug had an effect” and the HDL-cholesterol [1, 9] was “increased”. For the same compound, the VLDL-cholesterol [1, 9] was “reduced”, the “time to distribution to brain, spinal cord, liver and blood” value [2] was ≤ 20 min and the serum triglyceride levels ([3]; 30% lard diet, capsaicin 0.14% of diet, vs high-fat diet without capsaicin) was “significantly lower”. The levels of cholesterol [3, 10] was “not affected”, the “levels of free fatty acids” value [3, 10] was “not affected” and the levels of pre-beta-lipoprotein [3, 10] was “not affected”. For the same compound, the “weight of perirenal adipose tissue” value ([3]; high-fat diet rats) was “reduced in a dose-dependent manner”, the plasma insulin levels ([4]; OGTT in dogs) was “elevation” and the blood glucose levels ([4]; at 2.5 h in OGTT, n=6, control 6.40+/−0.13) was 4.91 mM.
In the case of `COc1cc(CNC(=O)CCCCCCC(C)C)ccc1O` [dihydrocapsaicin], the HDL-cholesterol ([1]; in vivo) is given as “increased significantly”, the VLDL cholesterol ([1]; in vivo) is given as “decreased significantly” and the VLDL-cholesterol ([1]; in vivo) is given as “reduced”. For the same compound, the serum triglyceride concentrations ([1]; in vivo) was “Neither drug had an effect” and the triglycerides ([1]; in vivo) was “decreased significantly”.
With “Palmitoyl Ester of Capsaicin USP [palmitoyl-capsaicin USP]” the LDL cholesterol [5] was ~110 mg/dL, the cholesterol level [5] was “normal level” and the “burning or irritation in the stomach” value [6] was “No individual complained of burning or irritation in the stomach”. The body weight [7] was “maintained an average weight” and the “body weight fluctuation over and under average” value [7] was 2-3 pounds.
